Source: patent publication US11497788B2, “Supramolecular glycosaminoglycans” (Northwestern University, priority 2015, dated 2022)

Assays:
[1] = test system: ALP and Osteocalcin (OCN) gene expression in C2C12 cells; experiment: Quantitative RT-PCR of ALP and Osteocalcin in C2C12 cells; type: cell-based, mouse; conditions: relative to heparin or PA nanofibers displaying uncharged GlcNAc; day 3
Protocol: (§1) C2C12 Cell Culture: C2C12 mouse myoblasts (ATCC) were maintained in Dulbecco's Modified Eagle's Medium with high glucose and L-glutamine (DMEM, ATCC), supplemented with 100 U/mL of penicillin and 100 μg/mL streptomycin (P/S, Life Technologies) and 10% heat inactivated FBS (Life Technologies), and passaged at 80-90% confluence. Media was changed every 2 days. Passages 3 to 8 were used for experiments. Cells were grown at 37° C., 5% CO2 in a humidified atmosphere. Cells were detached following a 3 minute incubation at 37° C. with 0.05% Trypsin-EDTA (Life Technologies), then resuspended in DMEM (10% FBS). Unless stated otherwise, cells were seeded at 75,000 cells/mL (400 μL/well in a 48-well plate), and allowed to attach for a minimum of 3 hours prior to experiments.
C2C12 Osteoblast Differentiation: PA samples were thermally annealed as described for Cryo-TEM. […] Cells were cultured for 3 days without changing the media, and osteoblast differentiation was assessed.
Quantitative RT-PCR: The gene expression levels were determined by real-time, reverse-transcription-PCR using an iQ5 Real-Time PCR Detection System (Bio-Rad). […] To confirm the specificity of the amplified products, melting curves were performed by cooling samples at 55° C. for 30 s and then increasing the temperature to 94° C. at 0.5° C./sec with continuous fluorescence measurement. […]

[2] = Zeta potential measurements; type: physicochemical
Protocol: Zeta Potential Measurements: Zeta (ζ) potential was measured using a Malvern Zetasizer Nano ZS (n=3). PA samples were thermally annealed as described for Cryo-TEM. Following, PAs were diluted to 0.5 mM in DMEM. PA solutions were water-bath sonicated for 1 min prior to zeta potential measurement. Background reading from DMEM alone was subtracted from the final measurements.

[3] = test system: BMP-2 signaling in C2C12 cells; experiment: C2C12 osteoblast differentiation with BMP-2, alkaline phosphatase (ALP) activity; type: cell-based, mouse; conditions: C2C12, BMP-2 75 ng/mL, 3 days
Protocol: as §1
C2C12 Osteoblast Differentiation: PA samples were thermally annealed as described for Cryo-TEM. PA solutions were spun down, pipetted for homogeneous mixing, then diluted to 1 mM with DMEM (no FBS). In a 1.5 mL microcentrifuge tube, PA solutions were further diluted with DMEM (5% FBS), gently vortexed, and appropriate amounts of GFs (20 μg/mL) were added to yield [PA]=125 μM and [GF]=375 ng/mL. For mixing, the microcentrifuge tube was gently inverted several times by hand. Following, cells were treated by adding a 100 μl, of the PA/GF mixture per well (48-well plate), yielding a final 500 μl, differentiation medium with [PA]=25 μM and [GF]=75 ng/mL. For controls, the initial 5 mM PA solution was substituted with either PBS alone (saline) or heparin in PBS at appropriate concentrations. Cells were cultured for 3 days without changing the media, and osteoblast differentiation was assessed.
Alkaline Phosphatase Activity: Alkaline phosphatase (ALP) activity was measured as a marker of osteoblast differentiation (ref. 38; incorporated by reference in its entirety). On day 3, media was removed, and cells were lysed with a 100 μL, of M-PER Mammalian Protein Extraction Reagent (Life Technologies), supplemented with 1×Halt Protease Inhibitor Cocktail (Thermo Fisher Scientific), for 30 minutes on an orbital shaker. A 20 μL, volume of the cell lysate was incubated with 200 μL, of the QUANTI-Blue colorimetric ALP assay (InvivoGen) for 30 minutes to 2 hours at 37° C., in duplicates. The ALP activity was assessed by reading the OD at 630 nm with Cytation3 microplate reader (BioTek). Data were normalized to the respective endogenous DNA levels using Quant-iT PicoGreen dsDNA Assay Kit (Life Technologies). Two separate experiments with 4 replicates each were averaged for statistical analysis. […]

[4] = target: T1, BMP-2 (Homo sapiens, UniProt P12643); experiment: Confocal fluorescence imaging of Cy5-labeled BMP-2 with PA nanofibers; type: binding; conditions: co-assembled with Cy3-PA 5 mol %; mixed 24 h
T1 construct: purchased Medtronic Sofamor Danek (Minneapolis, Minn.)
T1 sequence (P12643 283-396): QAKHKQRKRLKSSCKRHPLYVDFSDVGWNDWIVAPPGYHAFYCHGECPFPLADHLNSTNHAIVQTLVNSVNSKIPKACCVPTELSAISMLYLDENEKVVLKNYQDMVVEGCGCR
Protocol: Confocal Fluorescence Imaging: PA 1, PA 4, and Cy3-PA were dissolved to 6.6 mM in saline with 6.6 mM CaCl2, pH 7.2. […] Following, PA solutions were mixed with Cy5-BMP-2 (57 μM) at 10:1 vol. ratio to yield [PA]=6 mM and [BMP-2]=5.2 μM, and incubated overnight. For confocal imaging, 20 μl of the solutions containing Cy5-labeled protein and Cy3-Labeled PA nanofibers were coverslipped in IMMU-MOUNT (Termo Scientific) and visualized using a Nikon A1R confocal laser-scanning microscope with GaAsP detectors.

Substance: 3,4,6S-GlcNAc PA (VVAAEEK) [PA 1, glycosylated peptide amphiphile: Alkyne PA click-conjugated with trisulfated monosaccharide 1]
- ALP mRNA expression [1]: higher expressions
- osteocalcin mRNA expression [1]: higher expressions
- zeta potential / net charge of nanofibers [2]: highest net negative charge
- effect on BMP-2 activity / osteoblast differentiation (in words) [3]: dramatically amplified
- colocalization of Cy5-labeled BMP-2 with PA nanofibers [4]: strong colocalization
